According to patent publication US9593305B2, “Differentiation of pluripotent stem cells” (Janssen Biotech, Inc., priority 2008, dated 2017):

System: H1 human embryonic stem cells
Assay: Secondary screening with EGF/FGF4 in the absence of activin A (Example 4)
Assay type: cell-based
Details: for Cell Number: % of positive control / Cell Number: Average Total Cell Number / Sox17 Expression: % of positive control / Sox17 Expression: Average Total Intensity: 2.5 μM compound + 50 ng/ml EGF + 50 ng/ml FGF4, Wnt3a, no activin A, four days
Experimental: Clusters of H1 human embryonic stem cells were grown on reduced growth factor […]™ (Invitrogen; Cat #356231)-coated tissue culture plastic. Cells were passaged using collagenase (Invitrogen; Cat #Cat #17104-019) treatment and gentle scraping, washed to remove residual enzyme, and plated with even dispersal at a ratio of 1:1 (surface area) on reduced growth factor […]™-coated 96-well black plates (Packard ViewPlates; PerkinElmer; Cat #6005182) using volumes of 100 μl/well. Cells were allowed to attach as clusters and then recover log phase growth over a 1 to 3 day period, feeding daily with MEF conditioned medium supplemented with 8 ng/ml bFGF (R&D Systems; Cat #233-FB). Plates were maintained at 37° C., 5% CO2 in a humidified box throughout the duration of assay.
Stock concentrations for EGF (R&D Systems; Cat #236-EG) and FGF4 (R&D Systems; Cat #235-F4) were 250 ng/ml, each solubilized in PBS with 0.1% BSA (Sigma; Cat #A7888). Compounds were available as 5 mM stocks in 96-well plate format, solubilized in 100% DMSO (Sigma; Cat #D2650) and stored at −80° C. The compounds were further diluted to an intermediate concentration of 0.2 mM in 50 mM HEPES (Invitrogen; Cat #15630-080), 20% DMSO and stored at 4° C. All growth factors and inhibitors were prepared in a deep well, 96-well polypropylene plate, diluted to 5× intermediate stocks in DMEM:F12 base medium at the beginning of assay and stored at 4° C.
A secondary screening assay was conducted, testing in triplicate and feeding on alternate days over the four-day assay timeframe. Assays were initiated by aspirating culture medium from each well followed by three washes in PBS to remove residual growth factors and serum. Test volumes of 80 μl per well were added back containing DMEM:F12 base medium (Invitrogen; Cat #11330-032) supplemented with 0.625% FCS (HyClone; Cat #SH30070.03), 25 ng/ml Wnt3a (R&D Systems), and 3.125 μM compound plus 20 μl 5× stock of growth factors to yield a final concentration of 0.5% FCS, 20 ng/ml Wnt3a, and 2.5 μM compound plus 50 ng/ml EGF and 50 ng/ml FGF4 in the assay. Positive control wells (100 μl/well) contained the same base medium supplemented with 0.5% FCS, 20 ng/ml Wnt3a and 100 ng/ml activin A. Negative control wells (100 μl/well) contained the same base medium with 0.5% FCS and 20 ng/ml Wnt3a, omitting activin A.
On day 3, wells were aspirated and fed with 80 μl DMEM:F12 base medium supplemented with 2.5% FCS (HyClone) and 3.125 μM compound plus […] 5× stock of growth factors per well to yield a final concentration of 2% FCS and 2.5 μM compound (omitting Wnt3a) plus 50 ng/ml EGF and FGF4 in the assay. Positive control wells (100 μl/well) contained the same base medium supplemented with 2% FCS and 100 ng/ml activin A, omitting Wnt3a. Negative control wells (100 μl/well) contained the same base medium with 2% FCS, omitting both activin A and Wnt3a.
At the conclusion of four-days of culture, assay plates were washed twice with PBS, fixed with 4% paraformaldehyde (Alexis Biochemical; Cat #ALX-350-011) at room temperature for 20 minutes, then washed three times with PBS and permeabilized with 0.5% Triton X-100 (Sigma; Cat #T8760-2) for 20 minutes at room temperature. Cells were washed again three times with PBS and blocked with 4% chicken serum (Invitrogen; Cat 16110082) in PBS for 30 minutes at room temperature. Primary antibody (goat anti-human SOX17; R&D Systems; cat #AF1924) was diluted 1:100 in 4% chicken serum and added to each well for one hour at room temperature. Alexa Fluor 488 conjugated secondary antibody (chicken anti-goat IgG; Molecular Probes; Cat #AZ1467) was diluted 1:200 in PBS and added to each sample well after washing three times with PBS. To counterstain nuclei, 4 μg/ml Hoechst 33342 (Invitrogen; Cat #H3570) was added for ten minutes at room temperature. Plates were washed once with PBS and left in 100 μl/well PBS for imaging. […]

[1] = Table 3B most potent compounds, with EGF + FGF4, no activin A

SMILES | Cell Number: % of positive control | Cell Number: Average Total Cell Number | Sox17 Expression: % of positive control | Sox17 Expression: Average Total Intensity | Cell Number, % of positive control [1] | Sox17 Intensity % of positive control [1]
O=C1NCCCc2cncc(c2)-c2ncnc(n2)Nc2cccc(c2)CN2CCC1CC2 [Compound 22, 1,8,10,12,16,22,30-Heptaazapentacyclo[22.2.2.1-3,7˜0.1˜9,13˜1-14,18˜]hentriaconta-3(31), 4,6,9(30), 10,12,14(29), 15,17-nonaen-23-one] | 97.91 % of positive control | 18336 | 20.05 % of positive control | 3.72E+07 |  | 
CCN1CC(=O)NCCCc2cncc(c2)-c2ncnc(n2)Nc2cc(Cl)cc(c2)C1 [Compound 35, 10-Chloro-14-ethyl-3,5,7,14,17,23,27-heptaazatetracyclo[19.3.1.1˜2,6˜0.1˜8,12]Theptacosa-1(25), 2(27), 3,5,8(26), 9,11,21,23-nonaen-16-one] |  |  |  |  | 127.20 % of positive control | 13.69 % of positive control
O=C1CCN2CCN(CC2)Cc2cc(Cl)cc(c2)Nc2ncnc(n2)-c2cncc(c2)CCCN1 [Compound 34, 5-Chloro-1,8,10,12,16,22,26,32-octaazapentacyclo[24.2.2.1˜3.7˜0.1˜9,13˜0.1˜14.18˜]tritriaconta-3(33), 4,6,9(32), 10,12,14(31), 15,17-nonaen-23-one] | 100.87 % of positive control | 18891 | 17.55 % of positive control | 3.26E+07 |  | 
CN1CCC(=O)NCCCNc2ncccc2-c2ncnc(n2)Nc2cccc(c2)C1 [Compound 39, 9-Methyl-2,3,4,5,7,8,9,10-octahydro-16H-17,21-(azeno)-11,15-(metheno)pyrido[3,2-g][1,3,5,9,13,17]hexaazacyclotricosin-6(1H)-one] | 91.28 % of positive control | 17095 | 15.19 % of positive control | 2.82E+07 |  | 
CCN1CCCc2cccc(c2)-c2ncnc(n2)Nc2cccc(c2)CCNC(=O)C1 [Compound 29, 18-Ethyl-3,5,7,15,18,28-hexaazatetracyclo[20.3.1.1˜2,6˜0.1˜8,12˜]octacosa-1(26), 2(28), 3,5,8(27), 9,11,22,24-nonaen-16-one] | 107.97 % of positive control | 20221 | 15.27 % of positive control | 2.83E+07 |  | 
O=C1NCCCc2cncc(c2)-c2ncnc(n2)Nc2cccc(c2)CN2CCCC1C2 (centres unmarked) [Compound 17, 3,5,7,14,20,26,31-Heptaazapentacyclo[22.3.1.1-2,6˜1˜8,12˜1˜14,18˜]hentriaconta-1(28), 2(31), 3,5,8(30), 9,11,24,26-nonaen-19-one] | 114.51 % of positive control | 21445 | 18.48 % of positive control | 3.43E+07 |  | 
O=C1NCCCc2cncc(c2)-c2ncnc(n2)Nc2cc(Cl)cc(c2)CN2CCCC1C2 (centres unmarked) [Compound 37, 10-Chloro-3,5,7,14,20,26,31-heptaazapentacyclo[22.3.1.1˜2,6˜0.1˜8,12˜0.1˜14,18˜]hentriaconta-1(28), 2(31), 3,5,8(30), 9,11,24,26-nonaen-19-one] | 83.32 % of positive control | 15605 | 14.37 % of positive control | 2.67E+07 |  | 
